# Measured values as given in patent US11331369B2, “Endoparasitic depsipeptides” (Zoetis Services LLC, priority 2017, dated 2022).
# Test system: microfilariae of Dirofilaria immitis
# Assay: Dirofilaria immitis, Microfilaria (DiMF) In vitro Assay
# Assay type: cell-based
# Conditions: 72 h, read-out: DiMF Minimum Effective Dose (MED), approximately 72 hours incubation, microfilariae assessed for survival or paralysis
row,Compound,minimal effective concentration
1,"Cc1cnn(Cc2ccc(C[C@H]3OC(=O)[C@H](CC(C)C)N(C)C(=O)[C@@H](C)OC(=O)[C@H](CC(C)C)N(C)C(=O)[C@@H](Cc4ccc(Cn5cc(C(F)(F)F)cn5)cc4)OC(=O)[C@H](CC(C)C)N(C)C(=O)[C@@H](C)OC(=O)[C@H](CC(C)C)N(C)C3=O)cc2)c1 [Example 1a-30, (3S,6R,9S,12R,15S,18R,21S,24R)-3,9,15,21-tetraisobutyl-4,6,10,16,18,22-hexamethyl-12-(4-((4-methyl-1H-pyrazol-1-yl)methyl)benzyl)-24-(4-((4-(trifluoromethyl)-1H-pyrazol-1-yl)methyl)benzyl)-1,7,13,19-tetraoxa-4,10,16,22-tetraazacyclotetracosan-2,5,8,11,14,17,20,23-octaone]",0.01 to 0.1 µM
2,"CC(C)C[C@H]1C(=O)O[C@H](Cc2ccc(Cn3cc(Br)c(C#N)n3)cc2)C(=O)N(C)[C@@H](CC(C)C)C(=O)O[C@H](C)C(=O)N(C)[C@@H](CC(C)C)C(=O)O[C@H](Cc2ccc(Cn3cc(N)cn3)cc2)C(=O)N(C)[C@@H](CC(C)C)C(=O)O[C@H](C)C(=O)N1C [Example 1a-32, 1-(4-(((2R,5S,8R,11S,14R,17S,20R,23S)-14-(4-((4-amino-1H-pyrazol-1-yl)methyl)benzyl)-5,11,17,23-tetraisobutyl-4,8,10,16,20,22-hexamethyl-3,6,9,12,15,18,21,24-octaoxo-1,7,13,19-tetraoxa-4,10,16,22-tetraazacyclotetracosan-2-yl)methyl)benzyl)-4-bromo-1H-pyrazole-3-carbonitrile]",0.01 to 0.1 µM
3,"CC(C)C[C@H]1C(=O)O[C@H](Cc2ccc(Cn3nccc3Cl)cc2)C(=O)N(C)[C@@H](CC(C)C)C(=O)O[C@H](C)C(=O)N(C)[C@@H](CC(C)C)C(=O)O[C@H](Cc2ccc(Cn3ccc(Cl)n3)cc2)C(=O)N(C)[C@@H](CC(C)C)C(=O)O[C@H](C)C(=O)N1C [Example 1a-46, (3S,6R,9S,12R,15S,18R,21S,24R)-6-(4-((3-chloro-1H-pyrazol-1-yl)methyl)benzyl)-18-(4-((5-chloro-1H-pyrazol-1-yl)methyl)benzyl)-3,9,15,21-tetraisobutyl-4,10,12,16,22,24-hexamethyl-1,7,13,19-tetraoxa-4,10,16,22-tetraazacyclotetracosan-2,5,8,11,14,17,20,23-octaone]",0.001 to 0.01 µM
4,"Cc1cc(CC#N)nn1Cc1ccc(C[C@H]2OC(=O)[C@H](CC(C)C)N(C)C(=O)[C@@H](C)OC(=O)[C@H](CC(C)C)N(C)C(=O)[C@@H](Cc3ccc(Cn4nc(CC#N)cc4C)cc3)OC(=O)[C@H](CC(C)C)N(C)C(=O)[C@@H](C)OC(=O)[C@H](CC(C)C)N(C)C2=O)cc1 [Example 1b-7, 2,2′-((((((2R,5S,8R,11S,14R,17S,20R,23S)-5,11,17,23-tetraisobutyl-4,8,10,16,20,22-hexamethyl-3,6,9,12,15,18,21,24-octaoxo-1,7,13,19-tetraoxa-4,10,16,22-tetraazacyclotetracosane-2,14-diyl)bis(methylene))bis(4,1-phenylene))bis(methylene))bis(5-methyl-1H-pyrazole-1,3-diyl))diacetonitrile]",0.001 to 0.01 µM
5,"CC(C)C[C@H]1C(=O)O[C@H](Cc2ccc(Cn3nc(CO)cc3C3CC3)cc2)C(=O)N(C)[C@@H](CC(C)C)C(=O)O[C@H](C)C(=O)N(C)[C@@H](CC(C)C)C(=O)O[C@H](Cc2ccc(Cn3nc(CO)cc3C3CC3)cc2)C(=O)N(C)[C@@H](CC(C)C)C(=O)O[C@H](C)C(=O)N1C [Example 1b-8, (3S,6R,9S,12R,15S,18R,21S,24R)-6,18-bis(4-((5-cyclopropyl-3-(hydroxymethyl)-1H-pyrazol-1-yl)methyl)benzyl)-3,9,15,21-tetraisobutyl-4,10,12,16,22,24-hexamethyl-1,7,13,19-tetraoxa-4,10,16,22-tetraazacyclotetracosan-2,5,8,11,14,17,20,23-octaone]",0.001 to 0.01 µM
6,"CC(C)C[C@H]1C(=O)O[C@H](Cc2ccc(Cn3cc(-c4nccs4)cn3)cc2)C(=O)N(C)[C@@H](CC(C)C)C(=O)O[C@H](C)C(=O)N(C)[C@@H](CC(C)C)C(=O)O[C@H](Cc2ccc(Cn3cc(-c4nccs4)cn3)cc2)C(=O)N(C)[C@@H](CC(C)C)C(=O)O[C@H](C)C(=O)N1C [Example 1b-13, (3S,6R,9S,12R,15S,18R,21S,24R)-3,9,15,21-tetraisobutyl-4,6,10,16,18,22-hexamethyl-12,24-bis(4-((4-(thiazol-2-yl)-1H-pyrazol-1-yl)methyl)benzyl)-1,7,13,19-tetraoxa-4,10,16,22-tetraazacyclotetracosan-2,5,8,11,14,17,20,23-octaone]",0.01 to 0.1 µM
7,"CSc1cnn(Cc2ccc(C[C@H]3OC(=O)[C@H](CC(C)C)N(C)C(=O)[C@@H](C)OC(=O)[C@H](CC(C)C)N(C)C(=O)[C@@H](Cc4ccc(Cn5cc(SC)cn5)cc4)OC(=O)[C@H](CC(C)C)N(C)C(=O)[C@@H](C)OC(=O)[C@H](CC(C)C)N(C)C3=O)cc2)c1 [Example 1b-20, (3S,6R,9S,12R,15S,18R,21S,24R)-3,9,15,21-tetraisobutyl-4,6,10,16,18,22-hexamethyl-12,24-bis[[4-[(4-methylsulfanylpyrazol-1-yl)methyl]phenyl]methyl]-1,7,13,19-tetraoxa-4,10,16,22-tetrazacyclotetracosane-2,5,8,11,14,17,20,23-octaone]",0.01 to 0.1 µM
8,"CC(C)C[C@H]1C(=O)O[C@H](Cc2ccc(Cn3cc(/C(N)=N/O)cn3)cc2)C(=O)N(C)[C@@H](CC(C)C)C(=O)O[C@H](C)C(=O)N(C)[C@@H](CC(C)C)C(=O)O[C@H](Cc2ccc(Cn3cc(C(N)=NO)cn3)cc2)C(=O)N(C)[C@@H](CC(C)C)C(=O)O[C@H](C)C(=O)N1C [Example 1b-22, N′-hydroxy-1-[[4-[[(2R,5S,8R,11S,14R,17S,20R,23S)-14-[[4-[[4-[(Z)—N′-hydroxycarbamimidoyl]pyrazol-1-yl]methyl]phenyl]methyl]-5,11,17,23-tetraisobutyl-4,8,10,16,20,22-hexamethyl-3,6,9,12,15,18,21,24-octaoxo-1,7,13,19-tetraoxa-4,10,16,22-tetrazacyclotetracos-2-yl]methyl]phenyl]methyl]pyrazole-4-carboxamidine]",0.01 to 0.1 µM
9,"CCc1cnn(Cc2ccc(C[C@H]3OC(=O)[C@H](CC(C)C)N(C)C(=O)[C@@H](C)OC(=O)[C@H](CC(C)C)N(C)C(=O)[C@@H](Cc4ccc(Cn5cc(CC)cn5)cc4)OC(=O)[C@H](CC(C)C)N(C)C(=O)[C@@H](C)OC(=O)[C@H](CC(C)C)N(C)C3=O)cc2)c1 [Example 1b-31, (3S,6R,9S,12R,15S,18R,21S,24R)-6,18-bis[[4-[(4-ethylpyrazol-1-yl)methyl]phenyl]methyl]-3,9,15,21-tetraisobutyl-4, 10,12,16,22,24-hexamethyl-1,7,13,19-tetraoxa-4,10,16,22-tetrazacyclotetracosane-2,5,8,11,14,17,20,23-octaone]",0.01 to 0.1 µM
10,"CC(C)C[C@H]1C(=O)O[C@H](Cc2ccc(Cn3cc(C(F)(F)F)cn3)cc2)C(=O)N(C)[C@@H](CC(C)C)C(=O)O[C@H](C)C(=O)N(C)[C@@H](CC(C)C)C(=O)O[C@H](Cc2ccc(Cn3cc(C(F)(F)F)cn3)cc2)C(=O)N(C)[C@@H](CC(C)C)C(=O)O[C@H](C)C(=O)N1C [Example 1b-34, (3S,6R,9S,12R,15S,18R,21S,24R)-3,9,15,21-tetraisobutyl-4,6,10,16,18,22-hexamethyl-12,24-bis(4-((4-(trifluoromethyl)-1H-pyrazol-1-yl)methyl)benzyl)-1,7,13,19-tetraoxa-4,10,16,22-tetraazacyclotetracosan-2,5,8,11,14,17,20,23-octaone]",0.01 to 0.1 µM
11,"CC(=O)c1cnn(Cc2ccc(C[C@H]3OC(=O)[C@H](CC(C)C)N(C)C(=O)[C@@H](C)OC(=O)[C@H](CC(C)C)N(C)C(=O)[C@@H](Cc4ccc(Cn5cc(C(C)=O)cn5)cc4)OC(=O)[C@H](CC(C)C)N(C)C(=O)[C@@H](C)OC(=O)[C@H](CC(C)C)N(C)C3=O)cc2)c1 [Example 1b-38, (3S,6R,9S,12R,15S,18R,21S,24R)-6,18-bis(4-((4-acetyl-1H-pyrazol-1-yl)methyl)benzyl)-3,9,15,21-tetraisobutyl-4,10,12,16,22,24-hexamethyl-1,7,13,19-tetraoxa-4,10,16,22-tetraazacyclotetracosan-2,5,8,11,14,17,20,23-octaone]",0.01 to 0.1 µM
12,"CCOC(=O)c1cnn(Cc2ccc(C[C@H]3OC(=O)[C@H](CC(C)C)N(C)C(=O)[C@@H](C)OC(=O)[C@H](CC(C)C)N(C)C(=O)[C@@H](Cc4ccc(Cn5cc(C(=O)OCC)cn5)cc4)OC(=O)[C@H](CC(C)C)N(C)C(=O)[C@@H](C)OC(=O)[C@H](CC(C)C)N(C)C3=O)cc2)c1 [Example 1b-39, diethyl 1,1′-(((((2R,5S,8R,11S,14R,17S,20R,23S)-5,11,17,23-tetraisobutyl-4,8,10,16,20,22-hexamethyl-3,6,9,12,15,18,21,24-octaoxo-1,7,13,19-tetraoxa-4,10,16,22-tetraazacyclotetracosane-2,14-diyl)bis(methylene))bis(4,1-phenylene))bis(methylene))bis(1H-pyrazole-4-carboxylate)]",0.01 to 0.1 µM
13,"Cc1nn(Cc2ccc(C[C@H]3OC(=O)[C@H](CC(C)C)N(C)C(=O)[C@@H](C)OC(=O)[C@H](CC(C)C)N(C)C(=O)[C@@H](Cc4ccc(Cn5cc(Br)c(C)n5)cc4)OC(=O)[C@H](CC(C)C)N(C)C(=O)[C@@H](C)OC(=O)[C@H](CC(C)C)N(C)C3=O)cc2)cc1Br [Example 1b-43, (3S,6R,9S,12R,15S,18R,21S,24R)-6,18-bis(4-((4-bromo-3-methyl-1H-pyrazol-1-yl)methyl)benzyl)-3,9,15,21-tetraisobutyl-4,10,12,16,22,24-hexamethyl-1,7,13,19-tetraoxa-4,10,16,22-tetraazacyclotetracosan-2,5,8,11,14,17,20,23-octaone]",0.01 to 0.1 µM
